# Key:
# [1] = test system: CEM-SS cells; conditions: peptide 10 micrograms per ml, MTS
# [2] = test system: HIV-1IIIB in CEM-SS cells; assay: HIV-1 antiviral assay, CPE reduction (MTS); conditions: peptide 10 micrograms per ml, 6 days post-infection
# [3] = test system: Methicillin Resistant Staphylococcus Aureus (MRSA); conditions: 5 micrograms per ml
# [4] = test system: Streptococcus pneumoniae; conditions: 5 micrograms per ml
# [5] = in vitro; conditions: human
# [6] = test system: Pseudomonas aeruginosa; conditions: 5 micrograms per ml
# [7] = in vitro; conditions: human, CEM-SS cells
# [8] = Cytotoxicity in MRC-5 cells (CellTiter 96); conditions: human, MRC-5 cells (embryonal lung fibroblasts)
# [9] = test system: HCMV strain AD169 in MRC-5 cells; assay: HCMV plaque reduction assay; conditions: HCMV AD169 in MRC-5 cells; peptide 10 micrograms per ml; 7-10 days
# [10] = test system: MRC-5 cells; conditions: human, 6 days
# [11] = test system: HepG2-2.2.15 cells; conditions: peptide 10 micrograms per ml, dye uptake assay
compound,measurement,setting,value
Cc1cn([C@H]2C[C@H](N=[N+]=[N-])[C@@H](CO)O2)c(=O)[nH]c1=O [AZT],% Cell viability,[1],97%
same,% CPE reduction in HIV-1 infected CEM-SS cells,[2],99%
CC[C@H](C)[C@H](NC(=O)[C@H](CCCCN)NC(=O)[C@H](CCC(=O)O)NC(=O)[C@H](CCCCN)NC(=O)[C@H](CO)NC(=O)[C@H](CCCCN)NC(=O)[C@H](CCCNC(=N)N)NC(=O)[C@H](Cc1ccccc1)NC(=O)[C@H](Cc1ccccc1)NC(=O)[C@H](CC(=O)O)NC(=O)CNC(=O)[C@H](CC(C)C)NC(=O)[C@@H](N)CC(C)C)C(=O)NCC(=O)N[C@@H](CCCCN)C(=O)N[C@@H](CCC(=O)O)C(=O)N[C@@H](Cc1ccccc1)C(=O)N[C@@H](CCCCN)C(=O)N[C@@H](CCCNC(=N)N)C(=O)N[C@H](C(=O)N[C@H](C(=O)N[C@@H](CCC(N)=O)C(=O)N[C@@H](CCCNC(=N)N)C(=O)N[C@H](C(=O)N[C@@H](CCCCN)C(=O)N[C@@H](CC(=O)O)C(=O)N[C@@H](Cc1ccccc1)C(=O)N[C@@H](CC(C)C)C(=O)N[C@@H](CCCNC(=N)N)C(=O)N[C@@H](CC(N)=O)C(=O)N[C@@H](CC(C)C)C(=O)N[C@H](C(=O)N1CCC[C@H]1C(=O)N[C@@H](CCCNC(=N)N)C(=O)N[C@H](C(=O)N[C@@H](CCC(=O)O)C(=O)N[C@@H](CO)C(N)=O)[C@@H](C)O)C(C)C)[C@@H](C)CC)C(C)C)[C@@H](C)CC [LL-37],% inhibition,[3],0.0%
same,% inhibition,[4],0.0%
same,"viability at 144 h, 10 micrograms per ml",[5],100%
same,% inhibition,[6],0.0%
same,viability at 10 micrograms per ml,[7],86.4%
same,viability at 144 h,[8],100%
Nc1nc(O)c2ncn(COC(CO)CO)c2n1 [Ganciclovir],% plaque reduction,[9],100%
same,% Cell viability,[10],100%
"Nc1ccn([C@@H]2CS[C@H](CO)O2)c(=O)n1 [3TC, Lamivudine]",% Cell viability,[11],95.8%
CC(C)(C)NC(=O)[C@@H]1CN(Cc2cccnc2)CCN1C[C@@H](O)C[C@@H](Cc1ccccc1)C(=O)N[C@H]1c2ccccc2C[C@H]1O [Indinavir],% CPE reduction in HIV-1 infected CEM-SS cells,[2],100%

# — patent US20100210539A1, “USE OF PEPTIDE LL-37 AS A THERAPEUTIC AGENT” (priority 2007, published 2010)
